Results as given in ChEMBL document CHEMBL5154747, “Discovery of new carbonic anhydrase IX inhibitors as anticancer agents by toning the hydrophobic and hydrophilic rims of the active site to encounter the dual-tail approach” (Eur J Med Chem, 2022).

Legend:
Format in all cases: functional
Conditions in all cases: read-out: GI
OVCAR-4 = test: Anticancer activity against human OVCAR-4 cells assessed as cell growth inhibition at 10 uM incubated for 48 hrs by SRB assay relative to control
SK-MEL-28 = test: Anticancer activity against human SK-MEL-28 cells assessed as cell growth inhibition at 10 uM incubated for 48 hrs by SRB assay relative to control
TK-10 = test: Anticancer activity against human TK-10 cells assessed as cell growth inhibition at 10 uM incubated for 48 hrs by SRB assay relative to control
OVCAR-8 = test: Anticancer activity against human OVCAR-8 cells assessed as cell growth inhibition at 10 uM incubated for 48 hrs by SRB assay relative to control
K562 = test: Anticancer activity against human K562 cells assessed as cell growth inhibition at 10 uM incubated for 48 hrs by SRB assay relative to control
SNB-19 = test: Anticancer activity against human SNB-19 cells assessed as cell growth inhibition at 10 uM incubated for 48 hrs by SRB assay relative to control
COLO 205 = test: Anticancer activity against human COLO 205 cells assessed as cell growth inhibition at 10 uM incubated for 48 hrs by SRB assay relative to control
U-251 = test: Anticancer activity against human U-251 cells assessed as cell growth inhibition at 10 uM incubated for 48 hrs by SRB assay relative to control
BT-549 = test: Anticancer activity against human BT-549 cells assessed as cell growth inhibition at 10 uM incubated for 48 hrs by SRB assay relative to control
EKVX = test: Anticancer activity against human EKVX cells assessed as cell growth inhibition at 10 uM incubated for 48 hrs by SRB assay relative to control
OVCAR-5 = test: Anticancer activity against human OVCAR-5 cells assessed as cell growth inhibition at 10 uM incubated for 48 hrs by SRB assay relative to control
DU-145 = test: Anticancer activity against human DU-145 cells assessed as cell growth inhibition at 10 uM incubated for 48 hrs by SRB assay relative to control
NCI-H322M = test: Anticancer activity against human NCI-H322M cells assessed as cell growth inhibition at 10 uM incubated for 48 hrs by SRB assay relative to control
HL-60(TB) = test: Anticancer activity against human HL-60(TB) cells assessed as cell growth inhibition at 10 uM incubated for 48 hrs by SRB assay relative to control
HOP-62 = test: Anticancer activity against human HOP-62 cells assessed as cell growth inhibition at 10 uM incubated for 48 hrs by SRB assay relative to control
SF-295 = test: Anticancer activity against human SF-295 cells assessed as cell growth inhibition at 10 uM incubated for 48 hrs by SRB assay relative to control
786-0 = test: Anticancer activity against human 786-0 cells assessed as cell growth inhibition at 10 uM incubated for 48 hrs by SRB assay relative to control
RXF 393 = test: Anticancer activity against human RXF 393 cells assessed as cell growth inhibition at 10 uM incubated for 48 hrs by SRB assay relative to control
MOLT-4 = test: Anticancer activity against human MOLT-4 cells assessed as cell growth inhibition at 10 uM incubated for 48 hrs by SRB assay relative to control
UACC-62 = test: Anticancer activity against human UACC-62 cells assessed as cell growth inhibition at 10 uM incubated for 48 hrs by SRB assay relative to control

NS(=O)(=O)c1ccc(Nc2nc(N/N=C/c3c[nH]c4ccccc34)nc(Nc3ccccc3)n2)cc1 showed an inhibition of growth at 10 µM (OVCAR-4) of 40%, an inhibition of growth at 10 µM (SK-MEL-28) of 54% and an inhibition of growth at 10 µM (TK-10) of 20%. It also gave an inhibition of growth at 10 µM (OVCAR-8) of 62%, an inhibition of growth at 10 µM (K562) of 77% and an inhibition of growth at 10 µM (SNB-19) of 43%. The inhibition of growth at 10 µM (COLO 205) was 59%, the inhibition of growth at 10 µM (U-251) was 71% and the inhibition of growth at 10 µM (BT-549) was 51%. The inhibition of growth at 10 µM (EKVX) was 32%, the inhibition of growth at 10 µM (OVCAR-5) was 12% and the inhibition of growth at 10 µM (DU-145) was 56%. It also gave an inhibition of growth at 10 µM (NCI-H322M) of 45%, an inhibition of growth at 10 µM (HL-60(TB)) of 65% and an inhibition of growth at 10 µM (HOP-62) of 36%. It also gave an inhibition of growth at 10 µM (SF-295) of 68%, an inhibition of growth at 10 µM (786-0) of 58% and an inhibition of growth at 10 µM (RXF 393) of 125%. It also gave an inhibition of growth at 10 µM (MOLT-4) of 80% and an inhibition of growth at 10 µM (UACC-62) of 61%.
Work on NS(=O)(=O)c1ccc(Nc2nc(N/N=C/c3ccc4c(c3)OCO4)nc(Nc3ccccc3)n2)cc1 yielded an inhibition of growth at 10 µM (OVCAR-4) of 44%, an inhibition of growth at 10 µM (SK-MEL-28) of 32% and an inhibition of growth at 10 µM (TK-10) of less than 10%. For the same molecule, the inhibition of growth at 10 µM (OVCAR-8) was 50%, the inhibition of growth at 10 µM (K562) was 66% and the inhibition of growth at 10 µM (SNB-19) was 44%. The inhibition of growth at 10 µM (COLO 205) was 50%, the inhibition of growth at 10 µM (U-251) was 44% and the inhibition of growth at 10 µM (BT-549) was 23%. For the same molecule, the inhibition of growth at 10 µM (EKVX) was 26%, the inhibition of growth at 10 µM (OVCAR-5) was less than 10% and the inhibition of growth at 10 µM (DU-145) was 58%. The inhibition of growth at 10 µM (NCI-H322M) was 38%, the inhibition of growth at 10 µM (HL-60(TB)) was 68% and the inhibition of growth at 10 µM (HOP-62) was 70%. It also gave an inhibition of growth at 10 µM (SF-295) of 35%, an inhibition of growth at 10 µM (786-0) of 38% and an inhibition of growth at 10 µM (RXF 393) of 77%. The inhibition of growth at 10 µM (MOLT-4) was 88% and the inhibition of growth at 10 µM (UACC-62) was 21%.
CN(C)c1ccc(/C=N/Nc2nc(Nc3ccccc3)nc(Nc3ccc(S(N)(=O)=O)cc3)n2)cc1 was tested, and the inhibition of growth at 10 µM (OVCAR-4) was less than 10%, the inhibition of growth at 10 µM (SK-MEL-28) was 10% and the inhibition of growth at 10 µM (TK-10) was less than 10%. It also gave an inhibition of growth at 10 µM (OVCAR-8) of 31%, an inhibition of growth at 10 µM (K562) of 39% and an inhibition of growth at 10 µM (SNB-19) of 16%. For the same molecule, the inhibition of growth at 10 µM (COLO 205) was less than 10%, the inhibition of growth at 10 µM (U-251) was 32% and the inhibition of growth at 10 µM (BT-549) was less than 10%. The inhibition of growth at 10 µM (EKVX) was less than 10%, the inhibition of growth at 10 µM (OVCAR-5) was less than 10% and the inhibition of growth at 10 µM (DU-145) was 26%. The inhibition of growth at 10 µM (NCI-H322M) was 15%, the inhibition of growth at 10 µM (HL-60(TB)) was 29% and the inhibition of growth at 10 µM (HOP-62) was 12%. For the same molecule, the inhibition of growth at 10 µM (SF-295) was 53%, the inhibition of growth at 10 µM (786-0) was 31% and the inhibition of growth at 10 µM (RXF 393) was 35%. The inhibition of growth at 10 µM (MOLT-4) was 44% and the inhibition of growth at 10 µM (UACC-62) was less than 10%.
